# Target: T1, FAAH (Rattus norvegicus, UniProt P97612)
# T1 construct: expressed in transfected cells; cDNA by RT-PCR from brain cDNA (BD Biosciences)
# T1 sequence (P97612 1-579): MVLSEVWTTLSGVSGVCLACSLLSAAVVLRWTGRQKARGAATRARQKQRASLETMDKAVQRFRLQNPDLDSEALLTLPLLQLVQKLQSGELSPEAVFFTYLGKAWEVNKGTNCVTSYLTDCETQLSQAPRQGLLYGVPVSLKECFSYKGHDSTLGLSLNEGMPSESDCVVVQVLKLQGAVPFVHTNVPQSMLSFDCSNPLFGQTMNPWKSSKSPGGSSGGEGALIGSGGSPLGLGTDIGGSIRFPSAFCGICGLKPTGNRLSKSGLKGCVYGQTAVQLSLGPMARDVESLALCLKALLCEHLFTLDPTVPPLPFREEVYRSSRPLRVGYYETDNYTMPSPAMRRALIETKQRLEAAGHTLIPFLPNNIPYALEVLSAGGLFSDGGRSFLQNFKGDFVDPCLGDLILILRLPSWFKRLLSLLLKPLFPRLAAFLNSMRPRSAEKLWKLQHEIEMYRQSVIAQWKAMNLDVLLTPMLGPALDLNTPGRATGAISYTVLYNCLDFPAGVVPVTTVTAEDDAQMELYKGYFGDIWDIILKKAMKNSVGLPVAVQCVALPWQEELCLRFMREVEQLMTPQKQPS
# Assay: FAAH whole cell assay, CHO cells expressing rat FAAH
# Format: cell-based
# Conditions: not given
# Description: (§1) Murine (accession number NM_010173) and Rat FAAH (accession number NM_024132) was amplified by reverse transcriptase polymerase chain reaction (RT-PCR) from brain cDNA (BD Biosciences, San Jose, Calif.) using primers 1 and 2 or primers 1 and 3 respectively (see Table). The resulting PCR product was ligated into pCR4TOPO and DNA sequence confirmed. The full length murine FAAH was subcloned into the mammalian expression vector, pcDEFneo using either EcoRI (murine) or KpnI and EcoRI (rat) restriction sites. Chinese hamster ovary cells (CHO) were transfected following manufacturers protocol (AMAXA). Forty eight hours post transfection, cells were trypsinized and transferred to 96 well plates in Iscove's DMEM media supplemented with 2 mM Glutamine, 10% fetal calf serum, 1 mg/ml geneticin and HT Supplement (0.1 mM sodium hypoxanthine, 0.016 mM thymidine) in order to isolate single clones. Following selection in geneticin, individual clones were selected and FAAH activity was assessed using a whole cell fluorescent anandamide assay, modified from Ramarao et al (2005). Following removal of tissue culture media cells were dislodged following addition of Cellstripper (Mediatech, Inc. Manassas, Va.) and transferred to 96 well black clear bottom assay plate, centrifuged at 1,000 rpm for 3 mins and media removed and replaced with assay buffer (50 mM Tris pH8.0, 1 mM EDTA, 0.1% fatty acid free BSA). The reaction was initiated by addition of fluorescent substrate, AMC Arachidonoyl Amide (Cayman Chemical, Ann Arbor, Mich.) to 1 μM and reaction allowed to proceed for 2 hours at room temperature. Release of fluorescence was monitored in a CytoFluor Multiplate Reader. Cells expressing the highest amount of FAAH activity were selected for study with FAAH inhibitors.
# (§2) Assays are performed on either cell lysate or microsome fractions prepared as described or in whole cell format employing either the fluorescent substrate AAMCA (Cayman chemical, Ann Arbor, Mich.,) or ^3H-anandmaide ([ETHANOLAMINE-1-3H]American Radiolabeled Chemicals; 1 mCi/ml). The cell lysate or microsome assay is performed in Costar black wall, clear bottom plates by adding FAAH_CHO (whole cell, cell lysate or microsome) in assay buffer (50 mM Phosphate, pH 8.0, 1 mM EDTA, 200 mM KCl, 0.2% glycerol, 0.1% fatty acid free BSA) to each well, followed by either DMSO or compound and allowed to incubate at 22-25° C. for fifteen minutes. AAMCA substrate was used to achieve a final concentration of 1 μM and reaction allowed to proceed at room temperature for 1-3 hours. Fluorescent release as a measure of FAAH activity was monitored by reading the plate in a CytoFluor Multiplate Reader ([…]). Whole cell assay is conducted with cells harvested after rinsing tissue culture flasks three times with Ca^++Mg^++ free PBS, incubating for 10 mm in Enzyme free dissociation media and centrifuging for 5 minutes at 1,000 rpm in table top centrifuge. Cells are resuspended in assay buffer at desired cell number in (4×10^4 cells/assay in 96-well format; 1×10^4 cells/assay in 384-well format) and assayed as described.
row,SMILES,IC50
1,CS(=O)(=O)c1ccc(-c2nn(-c3ccc(F)cc3)cc2Sc2ccc(Cl)cc2)cc1 [Ex 1],0.018 µM
2,CS(=O)(=O)c1ccc(-c2nn(-c3ccncc3)cc2Sc2ccc(Cl)cc2)cc1 [Ex 5],0.016 µM
3,CS(=O)(=O)c1ccc(-c2nn(C3CCCC3)cc2Sc2ccc(Cl)cc2)cc1 [Ex 23],0.086 µM

# Target: T2, FAAH (Homo sapiens, UniProt O00519)
# T2 construct: The full length FAAH was subcloned into the mammalian expression vector, pcDEF.neo; expressed in transfected cells; cDNA from Origene
# T2 sequence (O00519 1-579): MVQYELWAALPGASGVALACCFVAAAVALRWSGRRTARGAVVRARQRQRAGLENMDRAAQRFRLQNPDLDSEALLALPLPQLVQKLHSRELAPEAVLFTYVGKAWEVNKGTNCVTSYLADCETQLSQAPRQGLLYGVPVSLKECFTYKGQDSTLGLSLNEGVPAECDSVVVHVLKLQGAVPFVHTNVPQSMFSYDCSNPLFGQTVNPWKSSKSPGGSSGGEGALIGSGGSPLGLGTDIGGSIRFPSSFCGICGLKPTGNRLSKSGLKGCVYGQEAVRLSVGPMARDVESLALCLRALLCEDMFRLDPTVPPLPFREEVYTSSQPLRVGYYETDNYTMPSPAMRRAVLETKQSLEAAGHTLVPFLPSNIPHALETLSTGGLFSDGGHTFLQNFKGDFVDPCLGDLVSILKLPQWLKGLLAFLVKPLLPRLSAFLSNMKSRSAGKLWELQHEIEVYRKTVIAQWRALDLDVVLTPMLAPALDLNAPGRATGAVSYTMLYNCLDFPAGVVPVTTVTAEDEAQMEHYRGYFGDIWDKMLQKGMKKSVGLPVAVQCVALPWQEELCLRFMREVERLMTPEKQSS
# Assay: FAAH enzyme assay, lysate of CHO cells expressing human FAAH
# Format: biochemical
# Conditions: CHO cell lysate, read-out: Human Lysate
# Description: (§3) To assist in assay development stable cell lines for human, murine and rat full length FAAH were developed. Human FAAH cDNA (Accession No: NM_001441.1) was purchased from Origene (Rockville, Md.). The full length FAAH was subcloned into the mammalian expression vector, pcDEF.neo, using XbaI and […] restriction sites and used for stable cell line generation.
# CHO cells expressing FAAH were used to prepare either crude cell lysate or microsome fractions. To harvest cells, tissue culture media was decanted, the monolayer washed three times with Ca^++Mg^++ free PBS and cells recovered after 15 min in enzyme free dissociation media (Millipore Corp, Billerica, Mass.). Cells were collected by centrifuging at 2000 rpm for 15 min. and the cell pellet re-suspended with 50 mM HEPES (pH 7.4) containing 1 mM EDTA and the protease inhibitors aprotinin (1 mg/ml) and leupeptin (100 μM). The suspension was sonicated at 4° C. and the cell lysate recovered after centrifuging at 12,000×g (14,600 rpm, SS34 rotor) for 20 min at 4° C. to form a crude pellet of cell debris, nuclei, peroxisomes, lysosomes, and mitochondria; the supernatant or cell lysate was used for FAAH enzyme assay. In some cases, microsomes fractions enriched in FAAH were prepared by centrifuging the cell lysate further at 27,000 rpm (100,000×g) in SW28 rotor for 50 minutes at 4° C. The pellet containing FAAH-enriched microsomes was re-suspend in 50 mM HEPES, (pH 7.4) 1 mM EDTA, and any remaining DNA sheared by passage of material through a 23 gauge needle and aliquots of enzyme were store at −80° C. prior to use.
# (American Radiolabeled Chemicals; 1 mCi/ml) with FAAH (Life Sciences (1995), 56, 1999-2005 and Journal of Pharmacology and Experimented Therapeutics (1997), 283, 729-734), Analytical. Biochemistry (2003), 318, 270-5. In addition, routine assays were performed monitoring hydrolysis of arachidonyl-7-amino-4-methylcoumarin amide (AAMCA) by following increase in fluorescence upon release of 7-amino 4-methyl coumarin (λEX=355 nm, (λEM=460 nm). Analytical. Biochemistry (2005). 343, 143-51.
# as §2
# Alternatively, assays are performed using anandamide [ethanolamine 1-^3H] (specific activity of 10 Ci/mmol) diluted with cold anandamide to achieve a final assay concentration of 1 μM anandamide (˜50,000 cpm). Enzyme (CHO cell lysate, brain or liver homogenate) is incubated in assay buffer (50 mM Phosphate, pH 8.0, 1 mM EDTA, 200 mM KCl, 0.2% glycerol, 0.1% fatty acid free BSA) with inhibitor at 25° C. for 30 minutes. The reaction was terminated by addition of 2 volumes of chloroform:methanol (1:1) and mixed by vortexing. […]
row,SMILES,IC50
1,CS(=O)(=O)c1ccc(-c2nn(-c3ccc(F)cc3)cc2Sc2ccc(Cl)cc2)cc1 [Ex 1],0.016 µM
2,CS(=O)(=O)c1ccc(-c2nn(-c3ccncc3)cc2Sc2ccc(Cl)cc2)cc1 [Ex 5],0.028 µM
3,CS(=O)(=O)c1ccc(-c2nn(C3CCCC3)cc2Sc2ccc(Cl)cc2)cc1 [Ex 23],0.143 µM

# Same assay, conditions: cell lysate, read-out: FAAH Human Cell Lysate IC50
row,SMILES,IC50
1,OC(c1ccc2cc(-c3nn(CCF)cc3Sc3ccc(Cl)cc3)ccc2n1)C(F)(F)F (centres unmarked) [Example 373],0.049 µM
2,OCc1ccc2cc(-c3n[nH]cc3Sc3ccc(Cl)cc3)ccc2n1 [Example 375],0.011 µM
3,CCC(=O)N1CCc2cc(-c3n[nH]cc3Sc3ccc(Cl)cc3)ccc2C1 [Example 376],0.168 µM
4,CC(=O)N1CCc2cc(-c3nn(C(C)C)cc3Sc3ccc(Cl)cc3)ccc2C1 [Example 377],0.033 µM
5,FC(F)c1ccc2cc(-c3nn(-c4ccccn4)cc3Sc3ccc(Cl)cc3)ccc2n1 [Example 379],0.0049 µM
6,Fc1ccc(-n2cc(Sc3ccc(Cl)cc3)c(-c3ccc4nc(C(F)F)ccc4c3)n2)cc1 [Example 380],0.024 µM
7,FC(F)c1ccc2cc(-c3nn(C4CC4)cc3Sc3ccc(Cl)cc3)ccc2n1 [Example 381],0.0095 µM
8,CCn1cc(-n2cc(Sc3ccc(Cl)cc3)c(-c3ccc4nc(C(F)F)ccc4c3)n2)cn1 [Example 382],0.0049 µM
9,FC(F)c1ccc2cc(-c3nn(C4CC4)cc3Sc3ccc(Cl)cn3)ccc2n1 [Example 383],0.029 µM
10,Cc1ccc2cc(-c3nn(C4CC4)cc3Sc3ccc(Cl)cc3)ccc2n1 [Example 384],0.018 µM
11,Cc1ccc2cc(-c3n[nH]cc3Sc3ccc(Cl)cc3)ccc2n1 [Example 385],0.192 µM
12,Clc1ccc(Sc2cn(C3CC3)nc2-c2ccc3nc(Cl)ccc3c2)cc1 [Example 386],0.094 µM
13,CCOC(=O)c1cnc2cc(-c3n[nH]cc3Sc3ccc(Cl)cc3)cnc2c1 [Example 387],0.014 µM
14,CCC(=O)N1CCc2cc(-c3nn(CCF)cc3Sc3ccc(Cl)cc3)ccc2C1 [Example 390],0.062 µM
15,OCc1cnc2cc(-c3nn(CCF)cc3Sc3ccc(Cl)cc3)ccc2c1 [Example 391],0.024 µM
16,CCNC(=O)c1cnc2cc(-c3nn(CCF)cc3Sc3ccc(Cl)cc3)cnc2c1 [Example 392],0.047 µM
17,CCOC(=O)c1cnc2cc(-c3nn(CCF)cc3Sc3ccc(Cl)cc3)cnc2c1 [Example 393],0.016 µM
18,CCNC(=O)c1cnc2cc(-c3nn(CCF)cc3Sc3ccc(Cl)cc3)ccc2c1 [Example 394],0.015 µM
19,NC(=O)c1ccc2cc(-c3nn(C4CC4)cc3Sc3ccc(Cl)cn3)ccc2n1 [Example 396],0.0148 µM
20,N#Cc1ccc2cc(-c3nn(C4CC4)cc3Sc3ccc(Cl)cn3)ccc2n1 [Example 397],0.172 µM
21,CCOC(=O)c1ccc2cc(-c3n[nH]cc3Sc3ccc(Cl)cn3)ccc2n1 [Example 398],0.00077 µM
22,CCOC(=O)c1ccc2cc(-c3nn(C4CC4)cc3Sc3ccc(Cl)cn3)ccc2n1 [Example 399],0.011 µM
23,CN(C)C(=O)c1ccc2cc(-c3nn(C4CC4)cc3Sc3ccc(Cl)cc3)ccc2n1 [Example 400],0.039 µM
24,CN(C)C(=O)c1ccc2cc(-c3nn(C4CC4)cc3Sc3ncc(Cl)cn3)ccc2n1 [Example 401],0.291 µM

# Target: T2, FAAH
# Assay: FAAH whole cell assay, CHO cells expressing human FAAH
# Format: cell-based
# Conditions: read-out: FAAH Human Whole Cell IC50
# Description: as §3, §1, §2
row,SMILES,IC50
1,CCNC(=O)c1ccc2cc(-c3c(Sc4ccc(Cl)cc4)cnn3C3CCCCO3)ccc2n1 (centres unmarked) [Example 402],0.0091 µM
2,CC(C)(O)c1ccc2cc(-c3c(Sc4ccc(Cl)cc4)cnn3C3CCCCO3)ccc2n1 (centres unmarked) [Example 403],0.063 µM
3,CC(=O)N1CCc2cc(-c3c(Sc4ccc(Cl)cc4)cnn3C3CCCCO3)ccc2C1 (centres unmarked) [Example 404],0.025 µM
4,N#Cc1ccc2cc(-c3c(Sc4ccc(Cl)cc4)cnn3C3CCCCO3)ccc2n1 (centres unmarked) [Example 405],0.035 µM
5,CCOC(=O)c1cnc2cc(-c3c(Sc4ccc(Cl)cc4)cnn3C3CCCCO3)ccc2c1 (centres unmarked) [Example 407],0.00194 µM

# Same assay, conditions: read-out: Human whole cell
row,SMILES,IC50
1,CS(=O)(=O)c1ccc(-c2nn(-c3ccc(F)cc3)cc2Sc2ccc(Cl)cc2)cc1 [Ex 1],0.036 µM
2,CS(=O)(=O)c1ccc(-c2nn(-c3ccncc3)cc2Sc2ccc(Cl)cc2)cc1 [Ex 5],0.048 µM
3,CS(=O)(=O)c1ccc(-c2nn(C3CCCC3)cc2Sc2ccc(Cl)cc2)cc1 [Ex 23],0.141 µM
